15 compounds from patent publication US9725459B2, “3-oxo-tetrahydro-furo[3,2-B]pyrrol-4(5H)-yl) derivatives I” (GRÜNENTHAL GMBH, priority 2014, dated 2017) can be followed below.

What is called Ki is the dissociation constant of the complex between target and ligand, obtained from inhibition or displacement. One may read the inhibition as how much of the control response was suppressed.

Each structure is given as a SMILES string.

What all share (assay type): biochemical
One assay concerns the target human cathepsin K (CatK) (Homo sapiens (Human), UniProt P43235). The experiment in a line: CatK functional enzyme assay. As to conditions: for Ki: recombinant human CatK, substrate Z-FR-AMC 40 μM, pH 5.5, Ki by Cheng Prusoff equation, read-out: hCatK, Ki. Here is the method: (§1) Reference and test compounds were assayed for inhibitory potency (IC50) against human cathepsins using the following assay setups:
(§2) Recombinant human cathepsins (CatS, CatK, CatL) were purchased from a Enzo Life Sciences. All assays were carried out in 96-well format using a buffer of 50 mM KH2PO4, 50 mM NaCl, 2 mM EDTA, 0.5 mM DTT and 1% Triton-X-100, pH 6.5 for Cathepsin S and a buffer of 50 mM NaOAc, 10 mM EDTA, 1 mM DTT and 0.01% Triton-X-100, pH 5.5 for CatK/L/B. For CatS, the enzyme (0.0007 mU/well) was incubated with fluorogeninc substrate (Z-VVR-AMC, 5 μM) at RT for 10 min. For CatK the enzyme (0.00175 mU/well) was incubated with fluorogeninc substrate (Z-FR-AMC, 40 μM) at RT for 10 min. For CatL, the enzyme (0.000874 mU/well) was incubated with fluorogeninc substrate (Z-VVR-AMC, 40 μM) at RT for 10 min. Flourogenic substrate turnover was detected using a microplate reader (Synergy™ H4, BioTek). Ki values were calculated using the Cheng Prusoff equation (Cheng & Prosoff 1973).

Another assay deals with human cathepsin S (CatS) (Homo sapiens (Human), UniProt P25774). The experiment in a line: CatS functional enzyme assay. As to conditions: for Selectivity Ki(hCatS)/Ki(hCatK): ratio Ki(hCatS)/Ki(hCatK); for Ki: recombinant human CatS, substrate Z-VVR-AMC 5 μM, pH 6.5, Ki by Cheng Prusoff equation, read-out: hCatS, Ki; for inhibition at 10 µM: read-out: hCatS, inhibition [%] at 10 μM. Here is the method:
as §2, with “Reference and test compounds were assayed for inhibitory potency (IC50) against human cathepsins using the following assay setups: Recombinant” for “Recombinant”, “All assays were carried out in 96-well format using a buffer of 50 mM KH2PO4, 50 mM NaCl, 2 mM EDTA, 0.5 mM DTT and 1% Triton-X-100, pH 6.5 for Cathepsin S and a buffer of 50 mM NaOAc, 10 mM EDTA, 1 mM DTT and 0.01% Triton-X-100, pH 5.5 for CatK/L/B.” left out

Another assay has as its target human cathepsin L (CatL) (Homo sapiens (Human), UniProt P07711). Description: CatL functional enzyme assay. As to conditions: read-out: hCatL, inhibition [%] at 31.6 μM. Here is the method: as §1, §2

human cathepsin L (CatL), sequence (P07711 114-333): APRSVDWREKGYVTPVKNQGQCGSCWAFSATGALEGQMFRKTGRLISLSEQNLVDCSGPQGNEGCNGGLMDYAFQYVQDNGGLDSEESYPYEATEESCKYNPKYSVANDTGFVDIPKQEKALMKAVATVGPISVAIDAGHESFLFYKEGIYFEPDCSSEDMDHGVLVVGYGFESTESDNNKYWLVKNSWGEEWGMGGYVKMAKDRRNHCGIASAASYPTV
human cathepsin S (CatS), sequence (P25774 115-331): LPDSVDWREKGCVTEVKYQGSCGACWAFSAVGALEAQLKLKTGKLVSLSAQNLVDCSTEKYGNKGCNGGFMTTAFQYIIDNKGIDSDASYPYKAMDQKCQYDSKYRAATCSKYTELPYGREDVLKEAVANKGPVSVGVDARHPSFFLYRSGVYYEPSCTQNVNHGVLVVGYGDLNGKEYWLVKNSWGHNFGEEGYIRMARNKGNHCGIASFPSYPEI
human cathepsin K (CatK), sequence (P43235 115-329): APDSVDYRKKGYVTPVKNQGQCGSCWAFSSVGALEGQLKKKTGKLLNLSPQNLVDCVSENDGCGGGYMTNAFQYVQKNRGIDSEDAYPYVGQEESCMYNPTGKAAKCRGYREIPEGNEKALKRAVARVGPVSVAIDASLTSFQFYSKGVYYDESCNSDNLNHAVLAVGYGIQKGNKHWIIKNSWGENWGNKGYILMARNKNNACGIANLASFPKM

In the case of `O=C(N[C@H](C(=O)N1C[C@H](Cl)[C@H]2OCC(=O)[C@H]21)C1CCCCC1)c1ncc(-c2cccnn2)s1` [Example 15, N-((S)-2-((3aS,6S,6aS)-6-chloro-3-oxotetrahydro-2H-furo[3,2-b]pyrrol-4(5H)-yl)-1-cyclohexyl-2-oxoethyl)-5-(pyridazin-3-yl)thiazole-2-carboxamide], the Ki at human cathepsin K (CatK) was determined as 25 nM. Also, on human cathepsin S (CatS), the “Selectivity Ki(hCatS)/Ki(hCatK)” value stood at 7.7 and the Ki worked out at 193 nM. The inhibition at 31.6 µM at human cathepsin L (CatL) is 12%.

For the compound `O=C(N[C@H](C(=O)N1C[C@H](Cl)[C@H]2OCC(=O)[C@H]21)C1CCCCC1)c1ccc(-c2cncc(F)c2)s1` [Example 16, N-((S)-2-((3aS,6S,6aS)-6-chloro-3-oxotetrahydro-2H-furo[3,2-b]pyrrol-4(5H)-yl)-1-cyclohexyl-2-oxoethyl)-5-(5-fluoropyridin-3-yl)thiophene-2-carboxamide], at human cathepsin K (CatK), the Ki turned out to be 13 nM. In addition, on human cathepsin S (CatS), the “Selectivity Ki(hCatS)/Ki(hCatK)” value was found to be 19.9 and the Ki was 259 nM. The inhibition at 31.6 µM on human cathepsin L (CatL) stood at 15%.

With `O=C(N[C@H](C(=O)N1C[C@H](Cl)[C@H]2OCC(=O)[C@H]21)C1CCCCC1)c1ccc(-c2ccc(Cl)nc2)s1` [Example 17, N-((S)-2-((3aS,6S,6aS)-6-chloro-3-oxotetrahydro-2H-furo[3,2-b]pyrrol-4(5H)-yl)-1-cyclohexyl-2-oxoethyl)-5-(6-chloropyridin-3-yl)thiophene-2-carboxamide], the Ki is 16 nM on human cathepsin K (CatK) and 347 nM at human cathepsin S (CatS). For the same compound, the “Selectivity Ki(hCatS)/Ki(hCatK)” value at human cathepsin S (CatS) is 21.7. Also, the inhibition at 31.6 µM on human cathepsin L (CatL) worked out at 9%.

On to `O=C(N[C@H](C(=O)N1C[C@H](Cl)[C@H]2OCC(=O)[C@H]21)C1CCCCC1)c1ncc(-c2ccnnc2)s1` [Example 18, N-((S)-2-((3aS,6S,6aS)-6-chloro-3-oxotetrahydro-2H-furo[3,2-b]pyrrol-4(5H)-yl)-1-cyclohexyl-2-oxoethyl)-5-(pyridazin-4-yl)thiazole-2-carboxamide], for which the Ki on human cathepsin K (CatK) was 31 nM. Moreover, on human cathepsin S (CatS), the “Selectivity Ki(hCatS)/Ki(hCatK)” value amounted to 1.2 and the Ki is 37 nM. For the same compound, the inhibition at 31.6 µM at human cathepsin L (CatL) was 15%.

In the case of `O=C(N[C@H](C(=O)N1C[C@H](Cl)[C@H]2OCC(=O)[C@H]21)C1CCCCC1)c1ccc(-c2ccnnc2)o1` [Example 19, N-((S)-2-((3aS,6S,6aS)-6-chloro-3-oxotetrahydro-2H-furo[3,2-b]pyrrol-4(5H)-yl)-1-cyclohexyl-2-oxoethyl)-5-(pyridazin-4-yl)furan-2-carboxamide], the Ki on human cathepsin K (CatK) amounted to 93 nM. In addition, at human cathepsin S (CatS), the “Selectivity Ki(hCatS)/Ki(hCatK)” value is listed as 0.8 and the Ki worked out at 74 nM. Also, the inhibition at 31.6 µM at human cathepsin L (CatL) came out at 12%.

Consider `O=C(N[C@H](C(=O)N1C[C@H](Cl)[C@H]2OCC(=O)[C@H]21)C1CCCCC1)c1ccc(-c2cccnn2)o1` [Example 20, N-((S)-2-((3aS,6S,6aS)-6-chloro-3-oxotetrahydro-2H-furo[3,2-b]pyrrol-4(5H)-yl)-1-cyclohexyl-2-oxoethyl)-5-(pyridazin-3-yl)furan-2-carboxamide], for which the Ki at human cathepsin K (CatK) worked out at 225 nM; on human cathepsin S (CatS), 727 nM. The “Selectivity Ki(hCatS)/Ki(hCatK)” value on human cathepsin S (CatS) came to 3.2. Also, the inhibition at 31.6 µM on human cathepsin L (CatL) turned out to be 16%.

In the case of `Cc1nc(-c2cnccn2)sc1C(=O)N[C@H](C(=O)N1C[C@H](Cl)[C@H]2OCC(=O)[C@H]21)C1CCCCC1` [Example 22, N-((S)-2-((3aS,6S,6aS)-6-chloro-3-oxotetrahydro-2H-furo[3,2-b]pyrrol-4(5H)-yl)-1-cyclohexyl-2-oxoethyl)-4-methyl-2-(pyrazin-2-yl)thiazole-5-carboxamide], the Ki at human cathepsin K (CatK) was determined as 37 nM. Also, the inhibition at 10 µM on human cathepsin S (CatS) is 73%. Besides, on human cathepsin L (CatL), the inhibition at 31.6 µM amounted to 17%.

As for `O=C(N[C@H](C(=O)N1C[C@H](Cl)[C@H]2OCC(=O)[C@H]21)C1CCCCC1)c1sc(-c2cccnc2)nc1C(F)(F)F` [Example 23, N-((S)-2-((3aS,6S,6aS)-6-chloro-3-oxotetrahydro-2H-furo[3,2-b]pyrrol-4(5H)-yl)-1-cyclohexyl-2-oxoethyl)-2-(pyridin-3-yl)-4-(trifluoromethyl)thiazole-5-carboxamide], the inhibition at 10 µM was found to be 52% on human cathepsin K (CatK) (read-out: hCatK, inhibition [%] at 10 μM) and 60% at human cathepsin S (CatS). On human cathepsin L (CatL), the inhibition at 31.6 µM is 0%.

Regarding `O=C(N[C@H](C(=O)N1C[C@H](Cl)[C@H]2OCC(=O)[C@H]21)C1CCCCC1)c1ncc(-c2cncnc2)s1` [Example 24, N-((S)-2-((3aS,6S,6aS)-6-chloro-3-oxotetrahydro-2H-furo[3,2-b]pyrrol-4(5H)-yl)-1-cyclohexyl-2-oxoethyl)-5-(pyrimidin-5-yl)thiazole-2-carboxamide], the Ki on human cathepsin K (CatK) is 22 nM. Moreover, on human cathepsin S (CatS), the “Selectivity Ki(hCatS)/Ki(hCatK)” value was 2.8 and the Ki stood at 61 nM. Further, on human cathepsin L (CatL), the inhibition at 31.6 µM was 10%.

Turning to `O=C(N[C@H](C(=O)N1C[C@H](Cl)[C@H]2OCC(=O)[C@H]21)C1CCCCC1)c1ccc(-c2cnccn2)o1` [Example 25, N-((S)-2-((3aS,6S,6aS)-6-chloro-3-oxotetrahydro-2H-furo[3,2-b]pyrrol-4(5H)-yl)-1-cyclohexyl-2-oxoethyl)-5-(pyrazin-2-yl)furan-2-carboxamide], on human cathepsin K (CatK), the Ki stood at 153 nM. For the same compound, on human cathepsin S (CatS), the “Selectivity Ki(hCatS)/Ki(hCatK)” value is given as 5.4 and the Ki came to 833 nM. Moreover, the inhibition at 31.6 µM at human cathepsin L (CatL) was 20%.

Regarding `O=C(N[C@H](C(=O)N1C[C@H](Cl)[C@H]2OCC(=O)[C@H]21)C1CCCCC1)c1ncc(-c2ccncn2)s1` [Example 26, N-((S)-2-((3aS,6S,6aS)-6-chloro-3-oxotetrahydro-2H-furo[3,2-b]pyrrol-4(5H)-yl)-1-cyclohexyl-2-oxoethyl)-5-(pyrimidin-4-yl)thiazole-2-carboxamide], the Ki on human cathepsin K (CatK) worked out at 48 nM; at human cathepsin S (CatS), 220 nM. The “Selectivity Ki(hCatS)/Ki(hCatK)” value at human cathepsin S (CatS) amounted to 4.6. Moreover, the inhibition at 31.6 µM on human cathepsin L (CatL) stood at 32%.

On to `Cc1ncc(-c2ccc(C(=O)N[C@H](C(=O)N3C[C@H](Cl)[C@H]4OCC(=O)[C@H]43)C3CCCCC3)s2)cn1` [Example 30, N-((S)-2-((3aS,6S,6aS)-6-chloro-3-oxotetrahydro-2H-furo[3,2-b]pyrrol-4(5H)-yl)-1-cyclohexyl-2-oxoethyl)-5-(2-methylpyrimidin-5-yl)thiophene-2-carboxamide], for which, on human cathepsin K (CatK), the Ki came to 10 nM. Further, on human cathepsin S (CatS), the “Selectivity Ki(hCatS)/Ki(hCatK)” value was 7.2 and the Ki was 72 nM. The inhibition at 31.6 µM on human cathepsin L (CatL) is 28%.

For `O=C(N[C@H](C(=O)N1C[C@H](Cl)[C@H]2OCC(=O)[C@H]21)C1CCCCC1)c1ccc(-c2ccncc2F)s1` [Example 31, N-((S)-2-((3aS,6S,6aS)-6-chloro-3-oxotetrahydro-2H-furo[3,2-b]pyrrol-4(5H)-yl)-1-cyclohexyl-2-oxoethyl)-5-(3-fluoropyridin-4-yl)thiophene-2-carboxamide], the Ki at human cathepsin K (CatK) stood at 5 nM. Also, on human cathepsin S (CatS), the “Selectivity Ki(hCatS)/Ki(hCatK)” value was 88.0 and the Ki amounted to 440 nM. Also, the inhibition at 31.6 µM on human cathepsin L (CatL) is 14%.

Regarding `Cc1nccc(-c2cnc(C(=O)N[C@H](C(=O)N3C[C@H](Cl)[C@H]4OCC(=O)[C@H]43)C3CCCCC3)s2)n1` [Example 32, N-((S)-2-((3aS,6S,6aS)-6-chloro-3-oxotetrahydro-2H-furo[3,2-b]pyrrol-4(5H)-yl)-1-cyclohexyl-2-oxoethyl)-5-(2-methylpyrimidin-4-yl)thiazole-2-carboxamide], the Ki at human cathepsin K (CatK) amounted to 20 nM; at human cathepsin S (CatS) it was 317 nM. Also, the “Selectivity Ki(hCatS)/Ki(hCatK)” value on human cathepsin S (CatS) came out at 15.9. The inhibition at 31.6 µM at human cathepsin L (CatL) was 22%.

Consider `Cc1cc(-c2ccc(C(=O)N[C@H](C(=O)N3C[C@H](Cl)[C@H]4OCC(=O)[C@H]43)C3CCCCC3)s2)ccn1` [Example 33, N-((S)-2-((3aS,6S,6aS)-6-chloro-3-oxotetrahydro-2H-furo[3,2-b]pyrrol-4(5H)-yl)-1-cyclohexyl-2-oxoethyl)-5-(2-methylpyridin-4-yl)thiophene-2-carboxamide], for which the Ki at human cathepsin K (CatK) is 4 nM; at human cathepsin S (CatS), 86 nM. In addition, the “Selectivity Ki(hCatS)/Ki(hCatK)” value at human cathepsin S (CatS) was 21.5. On human cathepsin L (CatL), the inhibition at 31.6 µM came to 12%.
